From patent publication US20120010177A1, “MicroRNA Modulators and Method for Identifying And Using The Same” (The Wistar Institute / North Carolina State University, priority 2008, published 2012)
Like-named read-outs stand apart in the source and are kept apart here.

Test system: miR-21
Experiment: High throughput primary miR-21 FLuc reporter assay (concentration-response)
Type: cell-based, human
Settings: HeLa Luc-miR-21 reporter, 48-hour incubation, read-out: AC50
Description: Primary miR-21 Assay. The primary miR-21 FLuc reporter assay is carried out with HeLa cells expressing the Luc-miR-21 reporter using a 48-hour incubation time. Active compounds that increase the luciferase response are identified based upon inhibition of miR-21.
SAR. The concentration-response data for the entire high throughput screen is plotted and modeled by a four parameter logistic fit and SAR analysis is performed according to conventional approaches (Iglese, et al. (2006) Proc. Natl. Acad. Sci. USA […]:11473-8). In brief, Class 1.1 and 1.2 are full curves containing upper and lower asymptotes with efficacy ≧80% and <80%, respectively. Class 2.1 and 2.2 are incomplete curves having only one asymptote with efficacy ≧80% and <80%, respectively. Class 3 curves show activity at only the highest concentration or are poorly fit. […] For SAR analysis, compounds associated with Class 1 and 2.1 curves are clustered using LEADSCOPE® fingerprints. […] Compounds sharing a common scaffold form a series. Candidate series and singletons are chosen for follow up studies. For each lead or series, an appropriate library design method (e.g., point substitution library or matrix library) is selected. Typically, precursors are synthesized and a library of 15-25 compounds is produced for analysis in the above-described assays.

SMILES | AC50 (Homo sapiens, HeLa, 48 h) [µM] | AC50 [µM]
Cc1cccc(-n2nnc(-c3nc(-c4cccs4)no3)c2N)c1C [Compound 9] | 0.09 | 
Nc1c(-c2nc(-c3cccs3)no2)nnn1-c1cccc(F)c1 [Compound 10] | 0.21 | 
Cc1cccc(-n2nnc(-c3nc(-c4cccs4)no3)c2N)c1 [Compound 11] | 0.33 | 
Nc1c(-c2nc(-c3ccccc3Cl)no2)nnn1-c1ccccc1F [Compound 12] | 0.83 | 
COc1cccc(-n2nnc(-c3nc(-c4cccs4)no3)c2N)c1 [Compound 13] | 1.04 | 
Cc1ccc(-n2nnc(-c3nc(-c4cccs4)no3)c2N)cc1C [Compound 14] | 1.65 | 
CCc1ccc(-n2nnc(-c3nc(-c4cccs4)no3)c2N)cc1 [Compound 15] | 1.17 | 
COc1ccc(C)cc1-n1nnc(-c2nc(-c3ccccc3Cl)no2)c1N [Compound 16] | 4.65 | 
COc1ccc(-n2nnc(-c3nc(-c4cccs4)no3)c2N)cc1 [Compound 17] | 0.58 | 
COc1ccc(-c2noc(-c3nnn(-c4cc(C)ccc4C)c3N)n2)cc1 [Compound 18] | 1.47 | 
CCc1cccc(-n2nnc(-c3nc(-c4cccs4)no3)c2N)c1 [Compound 19] | 1.65 | 
Cc1cccc(-n2nnc(-c3nc(-c4ccccc4)no3)c2N)c1C [Compound 20] | 1.85 | 
Cc1ccc(C)c(-n2nnc(-c3nc(-c4ccc(Cl)cc4)no3)c2N)c1 [Compound 21] | 1.31 | 
Nc1c(-c2nc(-c3cccs3)no2)nnn1-c1ccccc1Cl [Compound 22] | 0.09 | 
CCOc1ccccc1-n1nnc(-c2nc(-c3ccccc3)no2)c1N [Compound 23] | 3.69 | 
COc1cccc(NC(=O)Cn2nnc(-c3nc(-c4ccccc4)no3)c2N)c1 [Compound 24] | 10.4 | 
Nc1c(-c2nc(-c3cccs3)no2)nnn1-c1cccc(Cl)c1 [Compound 25] | 4.14 | 
CCc1cccc(-n2nnc(-c3nc(-c4ccccc4Cl)no3)c2N)c1 [Compound 26] | 16.5 | 
Cc1ccc(-c2noc(-c3nnn(CC(=O)Nc4cccc(C(F)(F)F)c4)c3N)n2)cc1 [Compound 27] | 0.74 | 
O=c1ccc2ccc(OCc3nnc(-c4ccccc4Br)o3)cc2o1 [Compound 28] | 11.7 | 
Cc1ccc(CNc2nc(-c3ccco3)nn2S(C)(=O)=O)cc1 [Compound 29] | 0.58 | 
Cc1ccc(CNc2nc3nc(C)c(Cl)c(C)n3n2)cc1 [Compound 30] | 1.31 | 

SMILES | AC50 (Homo sapiens, HeLa, 48 h) [µM] | AC50 [µM]
CC(C)c1ccc(CNc2nc(-c3ccco3)nn2C(=O)c2ccc([N+](=O)[O-])cc2)cc1 [Compound 31] | 2.07 | 
COc1ccc(CNc2nc(-c3ccco3)nn2C(=O)CC(C)C)cc1 [Compound 32] | 5.85 | 
CN(C)c1ccc(CNc2nc(-c3ccco3)nn2S(C)(=O)=O)cc1 [Compound 33] | 7.36 | 
O=C(c1ccc([N+](=O)[O-])cc1)n1nc(-c2ccccc2)nc1NCc1ccccc1 [Compound 34] | 8.26 | 
COc1ccccc1C(=O)n1nc(-c2ccco2)nc1NCc1ccc(Cl)cc1 [Compound 35] | 14.7 | 
O=C(c1ccc(Cl)cc1)n1nc(-c2ccccc2)nc1NCc1ccco1 [Compound 36] | 14.7 | 
Cc1ccc(-c2nc(NCc3ccco3)n(S(C)(=O)=O)n2)cc1 [Compound 37] | 14.7 | 
COc1ccc(CNc2nc(-c3ccccc3)nn2C(=O)c2ccc([N+](=O)[O-])cc2)cc1 [Compound 38] | 14.7 | 
COCC(=O)n1nc(-c2ccco2)nc1NCc1ccccc1Cl [Compound 39] | 16.5 | 
O=C(c1cccc([N+](=O)[O-])c1)n1nc(-c2ccccc2)nc1NCc1ccccc1 [Compound 40] | 16.5 | 
CCS(=O)(=O)n1nc(-c2ccccc2)nc1NCc1ccco1 [Compound 41] | 18.5 | 
CC(=O)n1nc(-c2ccccc2)nc1NCc1cccs1 [Compound 42] | 18.5 | 
CC(=O)c1cnc2nc(SCc3ccccc3)nn2c1C [Compound 43] | 5.21 | 
c1ccc(CSc2nnc3ccc(-c4cccs4)nn23)nc1 [Compound 44] | 7.36 | 
Cc1cc(C)n2nc(SCCOc3ccccc3)nc2n1 [Compound 45] | 7.36 | 
Fc1cccc(Cl)c1CSc1nnc2ccccn12 [Compound 46] | 10.4 | 
Cc1cc(C)n2nc(SCCOc3ccccc3F)nc2n1 [Compound 47] | 11.7 | 
COc1ccc(-c2nc(SCc3ccccc3)n(S(C)(=O)=O)n2)cc1 [Compound 48] | 13.1 | 
Cc1ccccc1OCCSc1nnc(C)n1-c1ccccc1 [Compound 50] | 14.7 | 
Brc1ccc(CSc2nnc3ccccn23)cc1 [Compound 51] | 16.5 | 
Cc1cc(C)n2c(SCc3ccccc3Cl)nnc2n1 [Compound 52] | 16.5 | 
O=C(CCc1ccccc1)n1nc(-c2ccco2)nc1SCc1ccccc1 [Compound 53] | 18.5 | 

SMILES | AC50 (Homo sapiens, HeLa, 48 h) [µM] | AC50 [µM]
Fc1ccccc1CSc1nnc(-c2cnccn2)n1Cc1ccco1 [Compound 54] | 20.8 | 
Cc1ccc(C)c(-n2nnc(-c3nc(-c4ccc(Cl)cc4)no3)c2N)c1 [Compound 55] |  | 1.85
COc1ccc(-c2nn3c(C4CCCCC4)nnc3s2)cc1OC [Compound 56] | 3.29 | 
COc1cccc(OC)c1-c1nn2c(-c3ccco3)nnc2s1 [Compound 57] | 11.7 | 
COCCNC(=O)C(c1cccnc1)N(Cc1ccccc1)C(=O)Cn1nnc2ccccc21 (stereo not shown) [Compound 58] | 13.1 | 
COc1nc(NCCO)nc(Nc2ccccc2F)n1 [Compound 59] | 4.65 | 
Cc1nnc(SCc2nc(N)nc(Nc3ccccc3)n2)s1 [Compound 60] | 11.7 | 
Cc1ccc(Nc2ncnc(N)n2)cc1C [Compound 61] | 13.1 | 
Nc1nc(CSCc2ccccc2)nc(N2CCOCC2)n1 [Compound 62] | 14.7 | 
COc1nc(Nc2cccc(C(F)(F)F)c2)nc(OC)n1 [Compound 63] | 14.7 | 
Cc1ccccc1Nc1nc(N)nc(CSc2nnc3ccccn23)n1 [Compound 64] | 16.5 | 
Nc1ncnc(Nc2ccc(F)c(Cl)c2)n1 [Compound 65] | 16.5 | 
COc1ccc(Nc2nc(N)nc(CSc3nccc(C)n3)n2)cc1 [Compound 66] | 16.5 | 
Nc1nc(Nc2ccccc2)nc(C(F)(F)F)n1 [Compound 67] | 16.5 | 
Cc1c(Cl)cccc1Nc1nc(N)nc(CSC(=S)N2CCOCC2)n1 [Compound 68] | 18.5 | 
Cc1ccccc1Nc1nc(N)nc(CCC(=O)c2ccc(O)cc2)n1 [Compound 69] | 18.5 | 
COc1ccccc1Nc1nc(N)nc(CSc2nc(C)cc(C)n2)n1 [Compound 70] | 18.5 | 
Cc1ccccc1Nc1nc(N)nc(CN(C)c2ccccc2)n1 [Compound 71] | 18.5 | 
CCc1ccc2oc(C(=O)Nc3nonc3CC)c(C)c2c1 [Compound 72] | 2.93 | 
CCc1nonc1NC(=O)c1oc2ccc(C)cc2c1C [Compound 73] | 5.85 | 
CCc1nonc1NC(=O)c1oc2cc(C)c(C)cc2c1C [Compound 74] | 5.85 | 
Cc1c(C(=O)N(C)C(C)c2ccccn2)oc2c(F)cccc12 (stereo not shown) [Compound 75] | 13.1 | 

SMILES | AC50 (Homo sapiens, HeLa, 48 h) [µM] | AC50 [µM]
COCC1CCN(C(=O)c2oc3c(F)cccc3c2C)C1 (stereo not shown) [Compound 76] | 13.1 | 
Cc1ccc2c(C)c(C(=O)N(C)C(C)c3ccncn3)oc2c1C (stereo not shown) [Compound 77] | 13.1 | 
Cc1cc(Cl)c2oc(C(=O)N(CCO)Cc3ccccc3)c(C)c2c1 [Compound 78] | 14.7 | 
CCc1nonc1NC(=O)c1oc2ccccc2c1C [Compound 79] | 14.7 | 
Cc1cc(Cl)c2oc(C(=O)N[C@H]3CC[C@H](O)CC3)c(C)c2c1 [Compound 80] | 16.5 | 
Cc1cc(C)c2c(N)c(C(=O)Nc3ccccc3F)sc2n1 [Compound 81] | 1.47 | 
Nc1c(C(=O)Nc2ccccc2Br)sc2nc(-c3cccs3)ccc12 [Compound 82] | 7.36 | 
Cc1cc(C)c2c(N)c(C(=O)Nc3ccccc3C(F)(F)F)sc2n1 [Compound 83] | 8.26 | 
Nc1c(C(=O)Nc2cc(F)ccc2F)sc2nc(-c3cccc(O)c3)ccc12 [Compound 84] | 11.7 | 
Nc1c(C(=O)Nc2ccc(S(=O)(=O)N3CCCC3)cc2)sc2nc3cc4c(cc3cc12)CCC4 [Compound 85] | 13.1 | 
COCc1cc(C)nc2sc(C(=O)Nc3ccccc3O)c(N)c12 [Compound 86] | 13.1 | 
Nc1c(C(=O)Nc2ccc(Cl)cc2F)sc2nc(-c3cccs3)ccc12 [Compound 87] | 16.5 | 
CC(C)COc1ccc(C(=O)Nc2cc(-c3ccccc3)no2)cc1 [Compound 88] | 4.65 | 
COC(=O)/C(=C/c1cccc([N+](=O)[O-])c1)NC(=O)c1ccc(OC)cc1 [Compound 89] |  | 5.21
COc1cccc(C(=O)NCCC2=CCCCC2)c1OC [Compound 90] | 5.85 | 
O=C(Nc1ccc(-c2nc3ccccc3[nH]2)cc1)c1ccc2c(c1)OCO2 [Compound 91] | 6.56 | 
COc1ccc(C(=O)Nc2nnc(C(C)C)s2)cc1OC [Compound 92] | 7.36 | 
CCn1nnc2cc(C(=O)Nc3ccc(OC)cc3)ccc21 [Compound 93] | 11.7 | 
CC(C)C(=O)Nc1nc2c(s1)CC(C(C)(C)C)CC2 (stereo not shown) [Compound 94] | 2.07 | 
CC(C)(C)C1CCc2nc(NC(=O)Cc3cn4ccsc4n3)sc2C1 (stereo not shown) [Compound 95] | 8.26 | 
O=C(CCc1ccccc1)Nc1cccnc1Cl [Compound 96] | 13.1 | 
CC(=O)Nc1nc2c(C)cc(NC(=O)C3CCCCC3)cc2s1 [Compound 97] | 14.7 | 
